Experimental findings from US7456133B2, “Substituted arylketones” (Bayer CropScience AG, priority 2001, dated 2008) are described below.

The structures appear in SMILES notation.

The nature of the first data set: Log P by reversed-phase HPLC (C 18), acidic range. Format: physicochemical. As to conditions: Table 1, labelled a): acidic range, 0.1% aqueous phosphoric acid/acetonitrile gradient, 43° C. How it is done:
Log P values given in the tables were determined in accordance with EEC Directive 79/831 Annex V.A8 by HPLC (High Performance Liquid Chromatography) using a reversed-phase column (C 18). Temperature: 43° C. (a) Mobile phases for the determination in the acidic range: 0.1% aqueous phosphoric acid, acetonitrile; linear gradient from 10% acetonitrile to 90% acetonitrile—the corresponding measurement results in Tables 1 and 2 are labelled^a).
With `O=C1CCCC(=O)C1C(=O)c1ccc(Cl)c(CNC(=S)Nc2ccccc2)c1Cl` [Example I-2-9], the “log P” value was “log P = 3.05^a)”.

With `CC(C)NC(=O)N(Cc1c(Cl)ccc(C(=O)C2C(=O)CCCC2=O)c1Cl)C(C)C` [Example I-2-10], the “log P” value is “log P = 2.86^a)”.

Take `CC(C)NC(=O)N(Cc1c(Cl)ccc(C(=O)c2cnn(C)c2O)c1Cl)C(C)C` [Example I-2-11]: the “log P” value was “log P = 2.02^a)”. As for `CC(C)N(Cc1c(Cl)ccc(C(=O)C2C(=O)CCCC2=O)c1Cl)C(N)=O` [Example I-2-12], the “log P” value is recorded as “log P = 2.03^a)”. Still for that read-out and setting: the value for `COCC(=O)NCCOc1c(Cl)ccc(C(=O)C2C(=O)CCCC2=O)c1Cl` [Example I-2-13] was “log P = 2.12^a)”. Take `CC(C)N(Cc1c(Cl)ccc(C(=O)c2cnn(C)c2O)c1Cl)C(N)=O` [Example I-2-14]: the “log P” value was “log P = 1.32^a)”. Regarding `CCNC(=O)N(Cc1c(Cl)ccc(C(=O)C2C(=O)CCCC2=O)c1Cl)C(C)C` [Example I-2-15], the “log P” value was “log P = 2.33^a)”. Same read-out and setting: the value for `CCNC(=O)N(Cc1c(Cl)ccc(C(=O)c2cnn(C)c2O)c1Cl)C(C)C` [Example I-2-16] was “log P = 1.42^a)”; that for `CC(C)N(Cc1c(Cl)ccc(C(=O)C2C(=O)CCCC2=O)c1Cl)C(=O)N(C)C` [Example I-2-17] was “log P = 2.82^a)”; that for `CC(C)N(Cc1c(Cl)ccc(C(=O)c2cnn(C)c2O)c1Cl)C(=O)N(C)C` [Example I-2-18] was “log P = 2.00^a)”. On to `Cc1ccccc1NC(=O)NCc1c(Cl)ccc(C(=O)c2cnn(C)c2O)c1Cl` [Example I-2-19], for which the “log P” value is listed as “log P = 1.95^a)”. Take `CN(C)C(=O)NCc1c(Cl)ccc(C(=O)C2C(=O)CCCC2=O)c1Cl` [Example I-2-21]: the “log P” value is on record as “log P = 1.87^a)”.

On to `CC(C)NC(=O)NCc1c(Cl)ccc(C(=O)c2cnn(C)c2O)c1Cl` [Example I-2-22], for which the “log P” value is reported as “log P = 1.35^a)”. Regarding `CN(C)C(=O)NCc1c(Cl)ccc(C(=O)c2cnn(C)c2O)c1Cl` [Example I-2-23], the “log P” value is “log P = 1.13^a)”. As for `CN(C)C(=O)N(Cc1c(Cl)ccc(C(=O)C2C(=O)CCCC2=O)c1Cl)C1CC1` [Example I-2-24], the “log P” value is reported as “log P = 2.45^a)”. Take `CN(C)C(=O)N(Cc1c(Cl)ccc(C(=O)c2cnn(C)c2O)c1Cl)c1ccc(Cl)cc1` [Example I-2-25]: the “log P” value was “log P = 1.69^a)”.

As to `CC(C)N(Cc1c(Cl)ccc(C(=O)C2C(=O)CCCC2=O)c1Cl)C(=O)Oc1ccccc1` [Example I-2-42], the “log P” value is listed as “log P = 4.25^a)”. Consider `CC(C)N(Cc1c(Cl)ccc(C(=O)c2cnn(C)c2O)c1Cl)C(=O)Oc1ccccc1` [Example I-2-43], for which the “log P” value is “log P = 3.19^a)”.

In the case of `CCOC(=O)N(Cc1c(Cl)ccc(C(=O)C2C(=O)CCCC2=O)c1Cl)C(C)C` [Example I-2-44], the “log P” value is given as “log P = 3.69^a)”. For `CCOC(=O)N(Cc1c(Cl)ccc(C(=O)c2cnn(C)c2O)c1Cl)C(C)C` [Example I-2-45], the “log P” value is reported as “log P = 2.69^a)”. Still for that read-out and setting: then `CC(C)NC(=O)N(Cc1c(Cl)ccc(C(=O)C2C(=O)CCCC2=O)c1Cl)C1CC1` [Example I-2-56], with “log P = 2.75^a)”; and `CNC(=S)N(Cc1c(Cl)ccc(C(=O)c2cnn(C)c2O)c1Cl)C(C)C` [Example I-2-58], with “log P = 1.91^a)”; and `CNC(=O)N(C)Cc1c(Cl)ccc(C(=O)C2C(=O)CCCC2=O)c1Cl` [Example I-2-59], with “log P = 1.81^a)”. On to `CNC(=O)N(C)Cc1c(Cl)ccc(C(=O)c2cnn(C)c2O)c1Cl` [Example I-2-60], for which the “log P” value is listed as “log P = 1.11^a)”.

Staying with this data set, now noted: reversed-phase HPLC column (C 18); given in the preparation examples, acidic or neutral range not given.
Regarding `O=C(O)c1ccc(Cl)c(OCCCl)c1Cl` [2,4-dichloro-3-(2-chloro-ethoxy)-benzoic acid], the chromatographic logP (commonly a lipophilicity value derived from retention on a column) was 2.31. Compound `CCn1ncc(C(=O)c2ccc(Cl)c(OCCNC(=S)NC)c2Cl)c1O` [Example I-2-2, N-(2-{2,6-dichloro-3-[(1-ethyl-5-hydroxy-1H-pyrazol-4-yl)-carbonyl]-phenoxy}-ethyl)-N′-methyl-thiourea] had a chromatographic logP of 1.6.
